Measurements taken from patent US5622983A, “N-substituted cycloalkyl and polycycloalkyl α-substituted Trp-Phe- and phenethylamine derivatives” (Warner-Lambert Company, priority 1995, dated 1997).

Legend:
LoVo cells = experiment: In vitro proliferation of LoVo cells (tetrazolium salt colorimetric assay); format: cell-based, human
Description: LoVo was obtained from the American Tissue Type Collection (ATCC CCL 229). Five×10^3 to 1×10^4 LoVo cells were cultured in 200 μL of serum containing RPMI in 96-well flat-bottomed titre plates for 24 hours. […] Cell proliferation was measured indirectly using a tetrazolium salt colorimetric assay for cellular respiration (Merlin JL, Azzi S, Lignon D, Ramacci C, Zeghari N, Guillemin F. MTT assays allow quick and reliable measurement of the response of human tumor cell to photodynamic therapy. Eur. J. Cancer, 28(8/9):1452-1458 (1992)).

[1] = Withdrawal from long-term drug or alcohol treatment, mouse light/dark box test; format: in vivo
Description: The effect of the compounds of the instant invention is illustrated, for example, in the mouse "light/dark box" test in FIGS. 5-12.
In FIG. 5, five animals were given nicotine, 0.1 mg/kg i.p.b.d. for 14 days. After a 24-hour withdrawal period, compound (20) was given at 1.0 mg/kg i.p.b.d.
FIG. 6 illustrates the effect of long-term treatment and withdrawal from nicotine using compound (20A). Five mice were given nicotine at 0.1 mg/kg i.p.b.d. for 14 days. After a withdrawal period of 24 hours, compound (20A) was given at 10 mg/kg i.p.b.d.
FIG. 7 illustrates the effect of long-term treatment and withdrawal from diazepam with intervention with compound (20). Five mice were given diazepam, at 10 mg/kg i.p.b.d. for seven days. Withdrawal was for a 24-hour period; compound 20 was given at 1.0 mg/kg i.p.b.d.
FIG. 8 illustrates the effect of compound (20A) on the long-term treatment and withdrawal from diazepam. Five mice were given diazepam at 10 mg/kg i.p.b.d. for seven days. After a withdrawal period of 24 hours, compound (20A) was given at 10 mg/kg i.p.b.d.
FIG. 9 illustrates the effect compound (20A) on the long-term treatment and withdrawal from alcohol. Five mice were given alcohol in drinking water 8% w/v for 14 days. After a withdrawal period of 24 hours, compound (20) was given at 1.0 mg/kg i.p.b.d.
Five mice were given alcohol in drinking water, 8% w/v for 14 days. After a withdrawal period of 24 hours, compound (20A) was given at 10 mg/kg i.p.b.d.
FIG. 11 illustrates the effectiveness in the long-term treatment and withdrawal from cocaine. Five mice were given cocaine as 1.0 mg/kg i.p.b.d. for 14 days.
Five mice were given cocaine at 1.0 mg/kg i.p.b.d. for 14 days after a withdrawal period of 24 hours, compound (20a) was given at 1.0 mg/kg i.p.b.d.

[2] = Flexor response in stimulated spinalized decerebrated rat preparation
[3] = Antagonism of intra-accumbens amphetamine hyperactivity (antipsychotic activity); format: in vivo, rat; settings: 10 mg/kg intraperitoneal; amphetamine 20 μg
Description: Male Sprague Dawley (CD) Bradford strain rats were used. The rats were housed in groups of five at a temperature of 21°±2° C. on a 12 hour light-dark cycle of lights-on between 07 hours 00 minutes and […]. Rats were fed CRM diet (Labsure) and allowed water ad libitum.
Rats were anesthetized with chloral hydrate (400 mg/kg SC) and placed in a Kopf stereotaxic frame. Chronically indwelling guide cannulae (constructedof stainless steel tubing 0.65 mm diameter held bilaterally in Parspex holders) were implanted using standard stereotaxic techniques to terminate 3.5 mm above the center of the nucleus accumbens (Ant. 9.4, Vert. 0.0, Lat. 1.6) or 5.0 mm above the central nucleus of the amygdala (Ant. 5.8, Vert. -1.8, Lat. ±4.5) (atlas of De Groot, 1959). The guides were kept patent during a 14-day recovery period using stainless steel stylers, 0.3 mm diameter, which extended 0.5 mmbeyond the guide tips.
Rats were manually restrained and the stylers removed. Intracerebral injection cannulae, 0.3 mm diameter, were inserted and drugs delivered in a volume of 0.5 μl over 5 seconds (a further 55 seconds was allowed for deposition) from Hamilton syringes attached via polythene tubing to the injection units. […]
The abilities of the compounds (20) and (20A) to inhibit the hyperactivity caused by the injection of amphetamine into the nucleus accumbens of the rat was measured. […]

[4] = tested on: pentagastrin stimulated gastric acid secretion; experiment: Pentagastrin stimulated gastric acid secretion (Ghosh and Schild perfused stomach); format: in vivo, rat; settings: 1 nmole/kg pentagastrin
Description: They were anesthetized with urethane (1.5 g/kg IP) and the trachea cannulated to aid spontaneous respiration. The stomach was perfused continuously using a modification of the original method of Ghosh & Schild in "Continuous recording of acid secretion in the rat", Br. J. Pharmac. […] The fluid was propelled by a roller pump (Gilson, Minipuls 2), through heating coils to bring its temperature to 37°±1° C. The perfusion fluid was collected by the fundic collecting funnel and passed to a pH electrode connected to a Jenway pH meter (PHM6). An output was taken from the pH meter to a Rikadenki chart recorder for the on-line recording of the pH of the gastric perfusate.
Pentagastrin was stored as a frozen aliquot and diluted to the required concentrations with sterile 0.9% w/v NaCl. Novel compounds were dissolved in sterile 0.9% w/v NaCl on the day of the experiment. Drugs were administered IV through a cannulated jugular vein as a bolus in a dose volume of 1 mL/kg washed in with 0.15 mL 0.9% w/v NaCl. Basal pH was allowed to stabilize before administration of compounds was begun.

[5] = Rat Social Interaction Test; format: in vivo; settings: 0,001 to 1.0 mg/kg s.c., paired rats
Excerpt: (Costall, B., University of Bradford)

What does the source list for `CC(Cc1c[nH]c2ccccc12)(NC(=O)OC1C2CC3CC(C2)CC1C3)C(=O)NCC(NC(=O)CCC(=O)O)c1ccccc1` (stereo not drawn) [Example 20, [R-(R*,R*)-4-[[2-[[3-(1H-indol-3-yl)-2-methyl-1-oxo-2-[[(tricyclo[3.3.1.1^3,7]dec-2-yloxy)carbonyl]amino]propyl]amino]-1-phenylethyl]amino]-4-oxobutanoic acid]?
cellular proliferation expressed as a percentage of control (LoVo cells; 10^-1 M, 24 hours): 58.93±7.30%; cellular proliferation expressed as a percentage of control (LoVo cells; 10^-1 M, 48 hours): 82.60±2.33%; cellular proliferation expressed as a percentage of control (LoVo cells; 10^-1 M, 72 hours): 80.53±3.06%; cellular proliferation expressed as a percentage of control (LoVo cells; 10^-7 M, 24 hours): 81.60±6.62%; cellular proliferation expressed as a percentage of control (LoVo cells; 10^-7 M, 48 hours): 95.33±2.50%; cellular proliferation expressed as a percentage of control (LoVo cells; 10^-7 M, 72 hours): 84.71±6.97%; cellular proliferation expressed as a percentage of control (LoVo cells; 10^-8 M, 24 hours): 70.13±7.15%; cellular proliferation expressed as a percentage of control (LoVo cells; 10^-8 M, 48 hours): 93.20±4.04%; cellular proliferation expressed as a percentage of control (LoVo cells; 10^-8 M, 72 hours): 85.93±4.19%; cellular proliferation expressed as a percentage of control (LoVo cells; 10^-9 M, 24 hours): 62.47±7.20%; cellular proliferation expressed as a percentage of control (LoVo cells; 10^-9 M, 48 hours): 82.73±2.97%; cellular proliferation expressed as a percentage of control (LoVo cells; 10^-9 M, 72 hours): 79.07±3.18%; cellular proliferation expressed as a percentage of control (LoVo cells; 10^-11 M, 24 hours, LoVo, serum-free RPMI): 66.47±6.72%; cellular proliferation expressed as a percentage of control (LoVo cells; 10^-11 M, 48 hours): 80.47±2.64%; cellular proliferation expressed as a percentage of control (LoVo cells; 10^-11 M, 72 hours): 78.87±3.25%; concentrations with significant inhibition (LoVo cells; after 24 and 72 hours (ANOVA)): 10^-11 to 10^-8 M; concentrations with significant inhibition (LoVo cells; at 48 hours (ANOVA)): 10^-11 to 10^-9 M; time of maximum inhibition (LoVo cells; cultures not refed with compound): 24 h; time spent in the light section after withdrawal from alcohol (FIG. 9) ([1]; alcohol 8% w/v in drinking water 14 days, 24-hour withdrawal, compound 1.0 mg/kg i.p.b.d.): demonstrates the effectiveness of the compound; time in the light section after withdrawal from cocaine (FIG. 11) ([1]; cocaine 1.0 mg/kg i.p.b.d. 14 days): increased time in the light section; time spent in the light section after withdrawal from diazepam (FIG. 7) ([1]; diazepam 10 mg/kg i.p.b.d. seven days, 24-hour withdrawal, compound 1.0 mg/kg i.p.b.d.): increased time spent in the light section; time spent in the light area after withdrawal from nicotine (FIG. 5) ([1]; nicotine 0.1 mg/kg i.p.b.d. 14 days, 24-hour withdrawal, compound 1.0 mg/kg i.p.b.d.): increased time spent in the light area; flexor response (FIG. 16) ([2]; compound alone, similar to morphine): depresses the flexor response; duration of the potentiated effect ([2]; given with morphine): 3 h; effect on flexor response when given with morphine (FIG. 16) ([2]; given with morphine): greatly potentiates the effect; hyperactivity caused by intra-accumbens injection of amphetamine [3]: reduced the hyperactivity; reversibility of the antagonism [4]: reversible with full recovery of the response to pentagastrin; effect on stimulation of gastric acid secretion produced by pentagastrin ([4]; compound IV, anesthetized rat): antagonized; time spent in social interaction compared with control (FIG. 13) [5]: increase in time spent in social interaction
